These results are taken from patent US9999622B2, “Pyrazolothiazole compound and medicine comprising same” (NIPPON SHINYAKU CO., LTD., priority 2014, dated 2018).

SMILES strings stand for the structures. Where a name gives a salt, the structure may show the parent alone.

Assay type in all cases: biochemical
The target of assay [1] is T1, JAK1 (Homo sapiens, UniProt P23458).
T1 construct: purchased Carna Biosciences, Inc
Description: JAK tyrosine kinase inhibitory activity in the presence of 1 mM ATP (ELISA), JAK1. In short, it runs like this: (§1)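 Kinase reactions ran on streptavidin-coated plates in 15 mM Tris-HCl pH 7.5, 0.01% Tween-20, 1 mM DTT, 30 °C for 1 h. Enzyme was prediluted to 7.5 nM (JAK1) or 0.75 nM (JAK2, JAK3) before addition. Phosphotyrosine was detected with HRP anti-pTyr antibody and TMB at A450.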

The target in assay [2] is T2, JAK2 (Homo sapiens, UniProt O60674).
T2 construct: purchased Carna Biosciences, Inc
Description: JAK tyrosine kinase inhibitory activity in the presence of 1 mM ATP (ELISA), JAK2. In short, it runs like this:
as §1

For assay [3], the target named is T3, JAK3 (Homo sapiens, UniProt P52333).
T3 construct: purchased Carna Biosciences, Inc
T3 sequence (P52333 1-1124): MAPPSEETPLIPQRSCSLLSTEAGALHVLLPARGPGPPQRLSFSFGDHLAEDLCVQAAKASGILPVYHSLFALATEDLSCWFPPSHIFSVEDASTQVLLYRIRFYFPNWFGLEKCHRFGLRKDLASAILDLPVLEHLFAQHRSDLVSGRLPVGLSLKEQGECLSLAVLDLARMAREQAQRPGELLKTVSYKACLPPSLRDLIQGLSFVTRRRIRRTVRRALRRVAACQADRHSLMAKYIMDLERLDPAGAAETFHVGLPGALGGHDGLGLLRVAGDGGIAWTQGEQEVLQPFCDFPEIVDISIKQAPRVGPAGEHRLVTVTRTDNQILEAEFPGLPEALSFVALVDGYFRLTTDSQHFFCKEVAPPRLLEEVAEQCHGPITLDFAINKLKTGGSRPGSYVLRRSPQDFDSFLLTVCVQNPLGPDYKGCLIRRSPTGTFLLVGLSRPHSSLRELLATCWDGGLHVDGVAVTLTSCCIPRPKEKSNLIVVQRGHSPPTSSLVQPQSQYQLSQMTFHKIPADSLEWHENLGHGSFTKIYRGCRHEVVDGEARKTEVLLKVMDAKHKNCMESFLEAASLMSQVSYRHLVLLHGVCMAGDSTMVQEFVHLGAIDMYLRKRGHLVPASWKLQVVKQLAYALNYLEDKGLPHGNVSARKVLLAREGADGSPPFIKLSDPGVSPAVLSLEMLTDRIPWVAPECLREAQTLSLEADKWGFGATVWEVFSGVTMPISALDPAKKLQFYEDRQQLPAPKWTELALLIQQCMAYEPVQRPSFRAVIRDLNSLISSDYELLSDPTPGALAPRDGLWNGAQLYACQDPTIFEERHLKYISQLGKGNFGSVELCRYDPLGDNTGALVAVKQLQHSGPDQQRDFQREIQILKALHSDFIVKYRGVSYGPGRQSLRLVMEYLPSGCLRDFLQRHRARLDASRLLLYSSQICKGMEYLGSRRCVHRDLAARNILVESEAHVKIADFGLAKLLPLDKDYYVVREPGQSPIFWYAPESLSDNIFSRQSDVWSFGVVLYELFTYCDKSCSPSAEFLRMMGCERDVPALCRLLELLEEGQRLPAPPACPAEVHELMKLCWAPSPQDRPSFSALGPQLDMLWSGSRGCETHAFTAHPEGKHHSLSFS
The assay can be described thus: JAK tyrosine kinase inhibitory activity in the presence of 1 mM ATP (ELISA), JAK3. In short, it runs like this: as §1

T2 sequence (O60674 whole entry): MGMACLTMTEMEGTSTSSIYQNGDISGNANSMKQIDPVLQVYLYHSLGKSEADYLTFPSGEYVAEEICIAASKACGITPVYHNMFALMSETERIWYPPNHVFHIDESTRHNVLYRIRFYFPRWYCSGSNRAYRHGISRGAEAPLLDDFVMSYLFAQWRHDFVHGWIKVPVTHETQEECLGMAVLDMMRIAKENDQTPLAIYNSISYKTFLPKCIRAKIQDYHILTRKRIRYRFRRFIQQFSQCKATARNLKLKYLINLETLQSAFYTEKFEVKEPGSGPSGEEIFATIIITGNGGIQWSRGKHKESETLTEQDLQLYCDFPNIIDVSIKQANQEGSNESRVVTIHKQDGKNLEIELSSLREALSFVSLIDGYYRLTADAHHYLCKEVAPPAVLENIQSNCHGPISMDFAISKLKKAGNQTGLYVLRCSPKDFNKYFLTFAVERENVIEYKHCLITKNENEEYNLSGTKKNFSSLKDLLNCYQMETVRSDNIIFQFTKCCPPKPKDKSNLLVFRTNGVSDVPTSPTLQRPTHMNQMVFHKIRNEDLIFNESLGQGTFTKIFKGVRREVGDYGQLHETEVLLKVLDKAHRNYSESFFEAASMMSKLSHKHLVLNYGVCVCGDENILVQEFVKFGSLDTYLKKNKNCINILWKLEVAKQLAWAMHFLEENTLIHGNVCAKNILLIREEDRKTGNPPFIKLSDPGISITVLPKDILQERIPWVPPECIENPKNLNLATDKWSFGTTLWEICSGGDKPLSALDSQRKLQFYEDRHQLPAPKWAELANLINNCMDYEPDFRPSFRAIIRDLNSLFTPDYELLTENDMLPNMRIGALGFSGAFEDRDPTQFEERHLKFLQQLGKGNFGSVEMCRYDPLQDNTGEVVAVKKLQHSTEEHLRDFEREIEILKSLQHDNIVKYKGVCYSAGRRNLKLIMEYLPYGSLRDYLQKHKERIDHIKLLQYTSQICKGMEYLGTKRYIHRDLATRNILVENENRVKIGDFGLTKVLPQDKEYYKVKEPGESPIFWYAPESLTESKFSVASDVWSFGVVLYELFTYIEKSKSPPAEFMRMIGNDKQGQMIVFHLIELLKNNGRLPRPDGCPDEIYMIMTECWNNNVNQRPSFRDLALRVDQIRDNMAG
T1 sequence (P23458 whole entry): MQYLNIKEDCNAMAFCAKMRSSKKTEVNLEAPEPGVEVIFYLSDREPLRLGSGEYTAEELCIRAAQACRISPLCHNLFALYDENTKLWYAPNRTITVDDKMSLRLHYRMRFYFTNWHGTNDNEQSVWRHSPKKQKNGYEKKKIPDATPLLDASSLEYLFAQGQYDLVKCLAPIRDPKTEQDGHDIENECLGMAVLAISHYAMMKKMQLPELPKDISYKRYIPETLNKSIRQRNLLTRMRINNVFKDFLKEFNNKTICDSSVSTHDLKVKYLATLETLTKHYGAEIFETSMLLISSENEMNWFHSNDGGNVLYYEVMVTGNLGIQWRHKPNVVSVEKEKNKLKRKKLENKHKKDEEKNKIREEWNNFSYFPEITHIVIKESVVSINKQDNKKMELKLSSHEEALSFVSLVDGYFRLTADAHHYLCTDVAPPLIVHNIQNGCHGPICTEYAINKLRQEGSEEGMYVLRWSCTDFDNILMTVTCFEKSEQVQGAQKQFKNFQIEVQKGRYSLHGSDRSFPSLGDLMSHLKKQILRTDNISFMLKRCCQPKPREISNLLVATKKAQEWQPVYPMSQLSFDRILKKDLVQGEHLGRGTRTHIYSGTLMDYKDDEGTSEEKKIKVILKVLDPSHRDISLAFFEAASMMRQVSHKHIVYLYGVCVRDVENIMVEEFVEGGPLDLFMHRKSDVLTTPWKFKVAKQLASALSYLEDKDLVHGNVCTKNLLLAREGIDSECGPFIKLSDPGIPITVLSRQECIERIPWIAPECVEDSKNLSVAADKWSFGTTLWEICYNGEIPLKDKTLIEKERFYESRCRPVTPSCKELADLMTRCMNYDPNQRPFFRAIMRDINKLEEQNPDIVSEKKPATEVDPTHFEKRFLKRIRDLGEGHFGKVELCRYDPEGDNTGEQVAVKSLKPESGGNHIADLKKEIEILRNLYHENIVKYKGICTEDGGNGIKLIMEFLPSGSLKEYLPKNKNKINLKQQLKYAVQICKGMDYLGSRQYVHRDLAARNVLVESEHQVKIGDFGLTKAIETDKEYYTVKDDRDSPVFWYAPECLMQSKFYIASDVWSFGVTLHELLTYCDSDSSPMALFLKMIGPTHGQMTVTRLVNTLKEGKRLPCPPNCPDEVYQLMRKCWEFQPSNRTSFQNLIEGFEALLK

`C[C@@H](Nc1cc(C(=O)N2CCC(NC(=O)C3CC3)CC2)nc(-c2cnn3ccsc23)n1)C1CCCCC1` [Example 169, N-1-[6-[(1R)-1-cyclohexylethyl]amino-2-(pyrazolo[5,1-b][1,3]thiazol-7-yl)pyrimidine-4-carbonyl]piperidin-4-ylcyclopropanecarboxamide]: the IC50 in assay [1] came to 160 nM; in assay [2], 6400 nM; in assay [3], 2100 nM.
The corresponding values for `CC(Nc1cc(C(=O)N2CCC(NC(=O)C3CC3)CC2)nc(-c2cnn3ccsc23)n1)c1ccncc1` (stereo not drawn) [Example 170, N-1-[2-(pyrazolo[5,1-b][1,3]thiazol 7 yl) 6 [1-(pyridin-4-yl)ethyl]aminopyrimidine-4-carbonyl]piperidin-4-ylcyclopropanecarboxamide] are 1600 nM, more than 10000 nM and more than 10000 nM.
The corresponding values for `CC(C)(C)OC(=O)N1CCC(Nc2cc(C(=O)N3CCC(NC(=O)C4CC4)CC3)nc(-c3cnn4ccsc34)n2)CC1` [Example 171, Tert-butyl 4-[6-4-[(cyclopropanecarbonyl)amino]piperidine-1-carbonyl-2-(pyrazolo[5,1-b][1,3]thiazol-7-yl)pyrimidin-4-yl]aminopiperidine-1-carboxylate] are 850 nM, more than 10000 nM and more than 10000 nM.
The corresponding values for `O=C(NC1CCN(C(=O)c2cc(NC3CCOCC3)nc(-c3cnn4ccsc34)n2)CC1)C1CC1` [Example 172, N-(1-6-[(oxan-4-yl)amino]-2-(pyrazolo[5,1-b][1,3]thiazol-7-yl)pyrimidine-4-carbonylpiperidin-4-yl)cyclopropanecarboxamide] are 320 nM, more than 10000 nM and more than 10000 nM.
With `O=C(NC1CCN(C(=O)c2cc(NC3COC3)nc(-c3cnn4ccsc34)n2)CC1)C1CC1` [Example 173, N-(1-6-[(oxetan-3-yl)amino]-2-(pyrazolo[5,1-b][1,3]thiazol-7-yl)pyrimidine-4-carbonylpiperidin-4-yl)cyclopropanecarboxamide], the IC50 is 3400 nM in assay [1], more than 10000 nM in assay [2] and more than 10000 nM in assay [3].
For `COC(=O)NC1CCN(C(=O)c2cc(NCC(C)(C)CC3CC3)nc(-c3cnn4ccsc34)n2)CC1` [Example 174, Methyl (1-6-[(3-cyclopropyl-2,2-dimethylpropyl)amino]-2-(pyrazolo[5,1-b][1,3]thiazol-7-yl)pyrimidine-4-carbonylpiperidin-4-yl)carbamate], the half-inhibitory concentration (IC50) was 300 nM in assay [1], more than 10000 nM in assay [2] and 5600 nM in assay [3].
In the case of `COC(=O)NC1CCN(C(=O)c2cc(NCC3CCN(S(C)(=O)=O)CC3)nc(-c3cnn4ccsc34)n2)CC1` [Example 175, Methyl 1-[6-([1-(methanesulfonyl)piperidin-4-yl]methylamino)-2-(pyrazolo[5,1-b][1,3]thiazol-7-yl)pyrimidine-4-carbonyl]piperidin 4-ylcarbamate], the IC50 in assay [1] was 96 nM; in assay [2], more than 10000 nM; in assay [3], more than 10000 nM.
Consider `O=C(NC1CCN(C(=O)c2cc(NC3CC4CCC3C4)nc(-c3cnn4ccsc34)n2)CC1)C1CC1` [Example 176, N-1-[6-[(1R)-bicyclo[2.2.1]heptan-2-yl]amino-2-(pyrazolo[5,1-b][1,3]thiazol-7-yl)pyrimidine-4-carbonyl]piperidin-4-ylcyclopropanecarboxamide], for which the IC50 in assay [1] was found to be 78 nM; in assay [2], 4400 nM; in assay [3] it was 4600 nM.
In the case of `COC(=O)NC1CCN(C(=O)c2cc(N[C@H]3CC[C@@H](O)CC3)nc(-c3cnn4ccsc34)n2)CC1` [Example 177, Methyl (1-6-[(cis-4-hydroxycyclohexyl)amino]-2-(pyrazolo[5,1-b][1,3]thiazol-7-yl)pyrimidine-4-carbonylpiperidin-4-yl)carbamate], the IC50 in assay [1] was 300 nM; in assay [2], more than 10000 nM; in assay [3] it was more than 10000 nM.
With `COC(=O)NC1CCN(C(=O)c2cc(N[C@H]3CC[C@H](O)CC3)nc(-c3cnn4ccsc34)n2)CC1` [Example 178, Methyl (1-6-[(trans-4-hydroxycyclohexyl)amino]-2-(pyrazolo[5,1-b][1,3]thiazol-7-yl)pyrimidine-4-carbonylpiperidin-4-yl)carbamate], the IC50 is 510 nM in assay [1], more than 10000 nM in assay [2] and 9500 nM in assay [3].
Regarding `COC(=O)NC1CCN(C(=O)c2cc(NC3CCCC3)nc(-c3cnn4ccsc34)n2)CC1` [Example 179, Methyl 1-[6-(cyclopentylamino)-2-(pyrazolo[5,1-b][1,3]thiazol-7-yl)pyrimidine-4-carbonyl]piperidin-4-ylcarbamate], the IC50 in assay [1] is 320 nM; in assay [2] it was more than 10000 nM; in assay [3], more than 10000 nM.
On to `COC(=O)NC1CCN(C(=O)c2cc(NC3CCCCC3)nc(-c3cnn4ccsc34)n2)CC1` [Example 180, Methyl 1-[6-(cyclohexylamino)-2-(pyrazolo[5,1-b][1,3]thiazol-7-yl)pyrimidine-4-carbonyl]piperidin-4-ylcarbamate], for which the figures for the IC50 in assay [1], in assay [2] and in assay [3] were 560 nM, more than 10000 nM and more than 10000 nM, respectively.
As for `O=C(NC1CCN(C(=O)c2cc(NC3CCNCC3)nc(-c3cnn4ccsc34)n2)CC1)C1CC1` [Example 181, N-(1-6-[(piperidin-4-yl)amino]-2-(pyrazolo[5,1-b][1,3]thiazol-7-yl)pyrimidine-4-carbonylpiperidin-4-yl)cyclopropanecarboxamide dihydrochloride], the IC50 in assay [1] was 860 nM; in assay [2], more than 10000 nM; in assay [3], more than 10000 nM.
As for `C[C@@H](Nc1cc(C(=O)N2CCC(NC(=O)C3CCCCC3)CC2)nc(-c2cnn3ccsc23)n1)C(C)(C)C` [Example 182, N-1-[6-[(2R)-3,3-dimethylbutan-2-yl]amino-2-(pyrazolo[5,1-b][1,3]thiazol-7-yl)pyrimidine-4-carbonyl]piperidin-4-ylcyclohexanecarboxamide], the 50% inhibitory concentration (IC50) came out at 88 nM in assay [1], 5400 nM in assay [2] and 1700 nM in assay [3].
On to `C[C@@H](Nc1cc(C(=O)N2CCC(NC(=O)c3ccccc3)CC2)nc(-c2cnn3ccsc23)n1)C(C)(C)C` [Example 183, N-1-[6-[(2R)-3,3-dimethylbutan-2-yl]amino-2-(pyrazolo[5,1-b][1,3]thiazol-7-yl)pyrimidine-4-carbonyl]piperidin-4-ylbenzamide], for which the IC50 in assay [1] was 87 nM; in assay [2], more than 10000 nM; in assay [3], 1200 nM.
As for `Cc1ccccc1C(=O)NC1CCN(C(=O)c2cc(N[C@@H](C)C3CC3)nc(-c3cnn4ccsc34)n2)CC1` [Example 184, N-1-[6-[(1S)-1-cyclopropylethyl]amino-2-(pyrazolo[5,1-b][1,3]thiazol-7-yl)pyrimidine-4-carbonyl]piperidin-4-yl-2-methylbenzamide], the 50% inhibitory concentration (IC50) in assay [1] was 62 nM; in assay [2], more than 10000 nM; in assay [3], 470 nM.
In the case of `C[C@H](Nc1cc(C(=O)N2CCC(NC(=O)c3ccccn3)CC2)nc(-c2cnn3ccsc23)n1)C1CC1` [Example 185, N-1-[6-[(1S)-1-cyclopropylethyl]amino-2-(pyrazolo[5,1-b][1,3]thiazol 7 yl)pyrimidine-4-carbonyl]piperidin-4-ylpyridine-2-carboxamide], the figures for the IC50 in assay [1], in assay [2] and in assay [3] were 190 nM, more than 10000 nM and 810 nM, respectively.
The matching figures for `COc1ccccc1C(=O)NC1CCN(C(=O)c2cc(N[C@@H](C)C3CC3)nc(-c3cnn4ccsc34)n2)CC1` [Example 186, N-1-[6-[(1S)-1-cyclopropylethyl]amino-2-(pyrazolo[5,1-b][1,3]thiazol-7-yl)pyrimidine-4-carbonyl]piperidin-4-yl-2-methoxybenzamide]: 81 nM, more than 10000 nM and 580 nM.
